Data taken from patent US9096598B2 (Merck Sharp & Dohme Corp., priority 2011, dated 2015).

Legend:
JAK2 = biological target: T1, JAK2 (Homo sapiens, UniProt O60674); experiment: Jak Biochemical HTRF Assay (JAK2); conditions: recombinant purified GST-tagged catalytic domain, [ATP] 8.5 μM, values given as range classes
T1 construct: recombinant purified GST-tagged catalytic domain for each enzyme; purchased Invitrogen M4290
Outline: (§1)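 GST-tagged recombinant catalytic domain and biotinylated peptide substrate were preincubated with compound for 30 min at room temperature in kinase buffer with 2 mM DTT and 0.05% BSA. ATP then started a 120 min reaction. Phosphopeptide was detected by HTRF (Eu-pY20/streptavidin-Dylight 650, 665/615 nm ratio), and IC50 came from a 4-parameter fit of percent inhibition.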

JAK3 = biological target: T2, JAK3 (Homo sapiens, UniProt P52333); experiment: Jak Biochemical HTRF Assay (JAK3); conditions: recombinant purified GST-tagged catalytic domain, [ATP] 2.9 μM, values given as range classes
T2 construct: recombinant purified GST-tagged catalytic domain for each enzyme; purchased Invitrogen M4290
Outline: as §1

T2 sequence (P52333 822-1111 limits assumed): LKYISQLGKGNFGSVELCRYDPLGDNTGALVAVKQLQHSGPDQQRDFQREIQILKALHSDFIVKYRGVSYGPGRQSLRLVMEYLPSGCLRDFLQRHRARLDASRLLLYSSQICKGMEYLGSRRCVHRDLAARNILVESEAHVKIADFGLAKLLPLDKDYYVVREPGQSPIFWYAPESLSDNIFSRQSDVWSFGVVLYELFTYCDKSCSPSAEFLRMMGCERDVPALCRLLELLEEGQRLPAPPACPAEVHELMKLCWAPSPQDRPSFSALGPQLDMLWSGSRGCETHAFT
T1 sequence (O60674 849-1124 limits assumed): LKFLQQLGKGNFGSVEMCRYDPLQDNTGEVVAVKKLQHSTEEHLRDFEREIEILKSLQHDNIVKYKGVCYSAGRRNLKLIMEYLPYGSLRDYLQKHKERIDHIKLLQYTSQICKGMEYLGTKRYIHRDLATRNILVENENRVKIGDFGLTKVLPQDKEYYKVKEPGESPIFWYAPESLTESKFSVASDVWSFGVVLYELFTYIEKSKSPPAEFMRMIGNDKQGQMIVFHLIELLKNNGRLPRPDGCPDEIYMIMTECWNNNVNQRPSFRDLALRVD

| Structure (SMILES) | IC50 (JAK2) [nM] | IC50 (JAK3) [nM] |
| --- | --- | --- |
| CC(C)[C@@H](Nc1cncc(-c2c[nH]c3ncc(C(=O)NCC4CCS(=O)(=O)C4)cc23)c1)C(=O)NCC(F)(F)F (stereo partly drawn) [Example 3-9, N-[(1,1-dioxidotetrahydrothiophen-3-yl)methyl]-3-[5-({(1R)-2-methyl-1-[(2,2,2-trifluoroethyl)carbamoyl]propyl}amino)pyridin-3-yl]-1H-pyrrolo[2,3-b]pyridine-5-carboxamide] | 10 to 500 | ≤ 10 |
| CC(C)[C@@H](Nc1cnnc(-c2c[nH]c3ncc(C#N)cc23)n1)C(=O)NCC(F)(F)F [Example 1-17, N~2~-[3-(5-cyano-1H-pyrrolo[2,3-b]pyridin-3-yl)-1,2,4-triazin-5-yl]-N-(2,2,2-trifluoroethyl)-D-valinamide] | 10 to 500 | ≤ 10 |
| CCCNC(=O)Nc1cnc2[nH]cc(-c3cncc(NC(C(=O)NCC(F)(F)F)C(C)C)c3)c2c1 (stereo not shown) [Example 6-2, N~2~-(5-{5-[(propylcarbamoyl)amino]-1H-pyrrolo[2,3-b]pylidin-3-yl}pyridin-3-yl)-N-(2,2,2-trifluoroethyl)valinamide] | 10 to 500 | ≤ 10 |
| CC(C)[C@H](Nc1cncc(-c2c[nH]c3ncc(OC4CCCC4)cc23)c1)C(=O)NCC(F)(F)F [Example 2-5, N~2~-{5-[5-(cyclopentyloxy)-1H-pyrrolo[2,3-b]pyridin-3-yl]pyridin-3-yl}-N-(2,2,2-trifluoroethyl)valinamide] | 10 to 500 | ≤ 10 |
| CC(C)[C@H](Nc1cncc(-c2c[nH]c3ncc(NC(=O)Nc4ccc(F)cc4F)cc23)c1)C(=O)NCC(F)(F)F [Example 6-3, N~2~-[5-(5-{[(2,4-difluorophenyl)carbamoyl]amino}-1H-pyrrolo[2,3-b]pyridin-3-yl)pyridin-3-yl]-N-(2,2,2-trifluoroethyl)valinamide] | 10 to 500 | ≤ 10 |
| CC(C)[C@H](Nc1cncc(-c2c[nH]c3ncc(OCCc4ccccc4)cc23)c1)C(=O)NCC(F)(F)F [Example 2-7, N~2~-{5-[5-(2-phenylethoxy)-1H-pyrrolo[2,3-b]pyridin-3-yl]pyridin-3-yl}-N-(2,2,2-trifluoroethyl)valinamide] | 10 to 500 | ≤ 10 |
| CC(C)[C@H](Nc1cncc(-c2c[nH]c3ncc(OC4Cc5ccccc5C4)cc23)c1)C(=O)NCC(F)(F)F [Example 2-8, N~2~-{5-[5-(2,3-dihydro-1H-inden-2-yloxy)-1H-pyrrolo[2,3-b]pyridin-3-yl]pyridin-3-yl}-N-(2,2,2-trifluoroethyl)valinamide] | 10 to 500 | ≤ 10 |
| CC(C)[C@H](Nc1cncc(-c2c[nH]c3ncc(-c4cnn(C)c4)cc23)c1)C(=O)NCC(F)(F)F [Example 8-2, N^2-{5-[5-(1-methyl-1H-pyrazol-4-yl)-1H-pyrrolo[2,3-b]pyridin-3-yl]pyridin-3-yl}-N-(2,2,2-trifluoroethyl)-L-valinamide] | 10 to 500 | 10 to 500 |
| CC(C)(Nc1cncc(-c2c[nH]c3ncc(C#N)cc23)c1)C(=O)NCC(F)(F)F [Example 1-44, N~2~-[5-(5-cyano-1H-pyrrolo[2,3-b]pyridin-3-yl)pyridin-3-yl]-2-methyl-N-(2,2,2-trifluoroethyl)alaninamide] | 10 to 500 | ≤ 10 |
| COc1cnc2[nH]cc(-c3cncc(N[C@H](C(=O)NCC(F)(F)F)C(C)C)c3)c2c1 [Example 1-45, N~2~-[5-(5-methoxy-1H-pyrrolo[2,3-b]pyridin-3-yl)pyridin-3-yl]-N-(2,2,2-trifluoroethyl)valinamide] | 10 to 500 | ≤ 10 |
| CC(C)(Nc1cncc(-c2c[nH]c3ncc(Cl)cc23)c1)C(=O)NCC(F)(F)F [Example 1-27, N~2~-[5-(5-chloro-1H-pyrrolo[2,3-b]pyridin-3-yl)pyridin-3-yl]-2-methyl-N-(2,2,2-trifluoroethyl)alaninamide] | 10 to 500 | ≤ 10 |
